According to PubChem BioAssay AID1963825 (Molecular Pharmacology Branch, DTP, NCI, 2024):

Experiment: Anticancer human tumor 997537-175-T-J1-PDC patient-derived colon adenocarcinoma cell line growth inhibition [POLQ]
Details: 997537-175-T-J1-PDC complex spheroid viability, combination with POLQ inhibitors; for IC50: curve of first compound; for viability, T/C: stronger effect = lower value
In short: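 Patient-derived tumour cells were co-cultured with HUVEC and mesenchymal stem cells as multicellular spheroids at 37 °C. They were treated with POLQ inhibitors (novobiocin, ART-558, RP6685) alone or combined with other agents. Top concentrations were at or near clinical Cmax (otherwise 10 microM; SN-38 at 1 microM), decreasing in half-log steps.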

[1] = second compound 0.0316 µM, first compound 0.0316 µM
[2] = second compound 0.0316 µM, first compound 0.1 µM
[3] = second compound 0.0316 µM, first compound 0.316 µM
[4] = second compound 0.0316 µM, first compound 1 µM
[5] = second compound 0.0316 µM, first compound 3.16 µM
[6] = second compound 0.0316 µM, first compound 10 µM
[7] = second compound 0.1 µM, first compound 0.0316 µM
[8] = second compound 0.1 µM, first compound 0.1 µM
[9] = second compound 0.1 µM, first compound 0.316 µM
[10] = second compound 0.1 µM, first compound 1 µM
[11] = second compound 0.1 µM, first compound 3.16 µM
[12] = second compound 0.1 µM, first compound 10 µM
[13] = second compound 0.316 µM, first compound 0.0316 µM
[14] = second compound 0.316 µM, first compound 0.1 µM
[15] = second compound 0.316 µM, first compound 0.316 µM
[16] = second compound 0.316 µM, first compound 1 µM
[17] = second compound 0.316 µM, first compound 3.16 µM
[18] = second compound 0.316 µM, first compound 10 µM
[19] = second compound 1 µM, first compound 0.0316 µM
[20] = second compound 1 µM, first compound 0.1 µM
[21] = second compound 1 µM, first compound 0.316 µM
[22] = second compound 1 µM, first compound 1 µM
[23] = second compound 1 µM, first compound 3.16 µM
[24] = second compound 1 µM, first compound 10 µM
[25] = second compound 3.16 µM, first compound 0.0316 µM
[26] = second compound 3.16 µM, first compound 0.1 µM
[27] = second compound 3.16 µM, first compound 0.316 µM
[28] = second compound 3.16 µM, first compound 1 µM
[29] = second compound 3.16 µM, first compound 3.16 µM
[30] = second compound 3.16 µM, first compound 10 µM
[31] = second compound 10 µM, first compound 0.0316 µM
[32] = second compound 10 µM, first compound 0.1 µM
[33] = second compound 10 µM, first compound 0.316 µM
[34] = second compound 10 µM, first compound 1 µM
[35] = second compound 10 µM, first compound 3.16 µM
[36] = second compound 10 µM, first compound 10 µM
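Further: luminescence signal used as a surrogate for viable cells; spheroids exposed to drugs for seven days before readout.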

C=CC(=O)N1CCN(c2nc(=O)n(-c3c(C)ccnc3C(C)C)c3nc(-c4c(O)cccc4F)c(F)cc23)C(C)C1 (centres undefined) + COC1C(OC(N)=O)C(O)C(Oc2ccc3c(O)c(NC(=O)c4ccc(O)c(CC=C(C)C)c4)c(=O)oc3c2C)OC1(C)C
IC50 (second compound 0.0316 µM): > 10 µM | IC50 (second compound 0.1 µM): > 10 µM | IC50 (second compound 0.316 µM): > 10 µM | IC50 (second compound 1 µM): > 10 µM | IC50 (second compound 3.16 µM): > 10 µM | IC50 (second compound 10 µM): > 10 µM | viability, T/C [1]: 106% | viability, T/C [2]: 108% | viability, T/C [3]: 107% | viability, T/C [4]: 112% | viability, T/C [5]: 109% | viability, T/C [6]: 91.7% | viability, T/C [7]: 123% | viability, T/C [8]: 125% | viability, T/C [9]: 95.5% | viability, T/C [10]: 91.5% | viability, T/C [11]: 115% | viability, T/C [12]: 108% | viability, T/C [13]: 106% | viability, T/C [14]: 95.6% | viability, T/C [15]: 106% | viability, T/C [16]: 105% | viability, T/C [17]: 117% | viability, T/C [18]: 93.8% | viability, T/C [19]: 106% | viability, T/C [20]: 113% | viability, T/C [21]: 96.6% | viability, T/C [22]: 105% | viability, T/C [23]: 109% | viability, T/C [24]: 105% | viability, T/C [25]: 105% | viability, T/C [26]: 101% | viability, T/C [27]: 115% | viability, T/C [28]: 104% | viability, T/C [29]: 101% | viability, T/C [30]: 95.7% | viability, T/C [31]: 96.3% | viability, T/C [32]: 109% | viability, T/C [33]: 93% | viability, T/C [34]: 105% | viability, T/C [35]: 104% | viability, T/C [36]: 96.7%

CC(C)n1c(=O)n(C)c2cnc3cc(F)c(-c4ccc(OCCCN5CCCCC5)nc4)cc3c21 + COC1C(OC(N)=O)C(O)C(Oc2ccc3c(O)c(NC(=O)c4ccc(O)c(CC=C(C)C)c4)c(=O)oc3c2C)OC1(C)C
IC50 (second compound 0.0316 µM): > 10 µM | IC50 (second compound 0.1 µM): > 10 µM | IC50 (second compound 0.316 µM): > 10 µM | IC50 (second compound 1 µM): > 10 µM | IC50 (second compound 3.16 µM): > 10 µM | IC50 (second compound 10 µM): > 10 µM | viability, T/C [1]: 79% | viability, T/C [2]: 104% | viability, T/C [3]: 106% | viability, T/C [4]: 89.6% | viability, T/C [5]: 102% | viability, T/C [6]: 89.5% | viability, T/C [7]: 103% | viability, T/C [8]: 102% | viability, T/C [9]: 102% | viability, T/C [10]: 96% | viability, T/C [11]: 93.8% | viability, T/C [12]: 88.1% | viability, T/C [13]: 83.8% | viability, T/C [14]: 102% | viability, T/C [15]: 114% | viability, T/C [16]: 80.4% | viability, T/C [17]: 89.2% | viability, T/C [18]: 77.7% | viability, T/C [19]: 97.6% | viability, T/C [20]: 97.3% | viability, T/C [21]: 102% | viability, T/C [22]: 99.6% | viability, T/C [23]: 93.2% | viability, T/C [24]: 88% | viability, T/C [25]: 98.4% | viability, T/C [26]: 97.8% | viability, T/C [27]: 90.7% | viability, T/C [28]: 88% | viability, T/C [29]: 80% | viability, T/C [30]: 89.8% | viability, T/C [31]: 103% | viability, T/C [32]: 95.8% | viability, T/C [33]: 90.9% | viability, T/C [34]: 82.6% | viability, T/C [35]: 80.1% | viability, T/C [36]: 85.5%
